Measurements from patent publication US20070010897A1, “Immunochemically modified and sterilized xenografts and allografts” (priority 2005, published 2007).

Columns and labels:
Porcine Parvovirus = assay: Viral inactivation test, Porcine Parvovirus; conditions: Porcine Parvovirus (NEnv./DNA); single process step (glutaraldehyde or E-beam 17.8 kGy)
Reovirus 3 = assay: Viral inactivation test, Reovirus 3; conditions: Reovirus 3 (NEnv./RNA); single process step (glutaraldehyde or E-beam 17.8 kGy)

`O=CCCCC=O` [Glutaraldehyde, glutaraldehyde] was tested, and the “Log10 Reduction” value (Porcine Parvovirus) was 1.91 Log10 and the “Log10 Reduction” value (Reovirus 3) was 4.24 Log10.
